Data on 14 compounds can be found in US9447086B2, “6-amino acid heteroaryldihydropyrimidines for the treatment and prophylaxis of hepatitis B virus infection” (priority 2012, dated 2016).

Values after ≈ are worked out from the molar mass of the structure shown. Where two headings read alike, the source gives them in different places.

Data set [1] deals with HBV. As to the kind of experiment: Selectivity index (CC50 value/EC50 value). The data set is classed as cell-based, Hepatitis B virus. The text has this: Based on FDA guidance, in order to support clinical testing in humans, the assessment of acceptable risk-benefit has to be achieved by providing clear evidence of in vitro antiviral activity (EC50) and cytotoxicity (CC50). It is important to establish that an investigational product has antiviral activity at concentrations that can be achieved in vivo without inducing toxic effects to cells. Furthermore, in a cell culture model, apparent antiviral activity of an investigational product can be the result of host cell death after exposure to the product. The relative effectiveness of the compound in inhibiting viral replication compared to inducing cell death is defined as the selectivity index (CC50 value/EC50 value). It is desirable to have a high selectivity index giving maximum antiviral activity with minimal cell toxicity.
The relative effectiveness of the compound in inhibiting viral replication compared to inducing cell death is defined as the selectivity index (CC50 value/EC50 value). It is desirable to have a high selectivity index giving maximum antiviral activity with minimal cell toxicity.

A short description of data set [2]: Cytotoxicity (CC50) in HepDE19 cells, CCK-8 cell viability. The following applies: human, HepDE19 cells; read-out: CC50. The data set is classed as cell-based. An excerpt:
(§1) HepG2.2.15 and HepDE19 are stably-transfected cell lines containing the HBV genome. Both cell lines are derived from the hepatoblastoma cell line Hep G2 (American Type Culture Collection, ATCC® HB-8065™) by the published procedures described in references: MA Selles et al. Proc. Natl. Acad. Sci. USA 1987, 84, 1005-1009 and H Guo et al. Journal of Virology 2007, 81, 12472-12484, respectively. Both cell lines were maintained in Dulbecco's modified Eagle's medium (DMEM)-F12 medium supplemented with 10% fetal bovine serum, 100 U/mL penicillin, 100 μg/mL streptomycin, and 0.5 mg/mL of G418.
Five days after treatment, cell viability was measured by addition of 20 μL of CCK-8 reagent. Two hours after incubation at 37° C., the absorbance at wavelengths of 450 nm and 630 nm (OD450 and OD630) was recorded by a plate reader.

Data set [3] in a line: Metabolic stability study in human microsome. The data set is classed as in vitro ADME. The procedure, abridged:
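Depletion of 1 μM compound followed by LC-MS/MS over 0–30 min (0, 3, 6, 9, 15, 30 min) after methanol quench. Incubations at 37 °C, pH 7.4 phosphate buffer, 0.5 mg/mL microsomal protein, with NADPH (1 mM) or a regenerating system as cofactor; controls lacked cofactor.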

Data set [4] is described as follows: Lyophilisation solubility assay (Lysa). The format is physicochemical. As to conditions: phosphate buffer, pH 6.5, aqueous buffer, thermodynamic from solid. The method in brief: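 Solubility in μg/mL is read by UV or HPLC-UV on filtrate, neat and diluted 1/10. Before filtration, the residue from evaporated 10 mM DMSO stock was taken up in pH 6.5 0.05 M phosphate buffer, then stirred 1 h, shaken 2 h and stood overnight, in duplicate.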

In data set [5] the test system is HBV. As to the kind of experiment: Anti-HBV activity in vitro in HepG2.2.15 cells (extracellular HBV DNA by qPCR). The format is cell-based, Hepatitis B virus. The following applies: Hepatitis B virus.
Source text: as §1
While HepG2.2.15 cells constitutively support HBV replication and production of virus particles, HepDE19 cells are inducible by tetracycline. Addition of 1 μg/mL tetracycline in culture medium suppresses HBV replication in HepDE19 cells, whereas switching to tetracycline-free medium resumes this process.
HepG2.2.15 cells were seeded into 96-well plates (3×10^4 cells in 100 μl media per well) and incubated overnight at 37° C. The test compounds were serially half-log diluted in DMSO, then diluted 100 times in culture media. 100 μL diluted compounds were added into the plates to reach 0.5% final concentration of DMSO in every well. Five days after compound treatment, culture supernatant was collected for further analysis.
For quantitative PCR detection of extracellular HBV DNA, 100 μL culture supernatant was collected and processed in MagNA Pure 96 Nucleic Acid Purification System (Roche Applied Science) for viral DNA extraction. The extracted samples were subjected to HBV DNA quantification by qPCR.
The compounds of the present invention were tested for their capacity to inhibit a HBV activity and activation as described herein.
Background: In qPCR the cycle at which signal appears reflects the starting amount.

Setting [6] is: HepG2.2.15 cells, in-house data, read-out: EC50.

Usually CC50 stands for the concentration giving 50% cytotoxicity. Usually thermodynamic solubility stands for the concentration in solution at equilibrium with solid. A word on the EC50: it is the concentration giving half of the maximal effect. `[2H][C@@]1(c2ccc(F)cc2Cl)N=C(c2nccs2)NC(CN2CC(F)(F)C[C@H]2C(=O)O)=C1C(=O)OC` [Example 3, (S)-6-((S)-2-Carboxy-4,4-difluoro-pyrrolidin-1-ylmethyl)-4-(2-chloro-4-fluoro-phenyl)-[4-^2H]-2-thiazol-2-yl-1,4-dihydro-pyrimidine-5-carboxylic acid methyl ester]: the “Selectivity index (CC50/EC50)” value in the data set on HBV [1] is 88182. Further, in data set [2], the CC50 at 5 days came out at 97000 nM. In data set [3], the “Human Hepatic Clearance” value is 9.21 mL/min/kg. The compound further yielded a thermodynamic solubility in data set [4] of over 644 µg/mL. Moreover, the EC50 in the data set with HBV [5] (setting [6]) is 1.1 nM.
The like results for `CCOC(=O)C1=C(CN2CC(F)(F)C[C@H]2C(=O)O)NC(c2nccs2)=N[C@H]1c1ccc(F)cc1F` [Example 59, (R)-6-((S)-2-Carboxy-4,4-difluoro-pyrrolidin-1-ylmethyl)-4-(2,4-difluoro-phenyl)-2-thiazol-2-yl-1,4-dihydro-pyrimidine-5-carboxylic acid ethyl ester] were, in that order, 3935, 52000 nM, 3.5 mL/min/kg, over 630 µg/mL and 13 nM.
The like results for `COC(=O)C1=C(CN2CCOC[C@H]2C(=O)O)NC(c2nccs2)=N[C@H]1c1ccc(Cl)cc1F` [Example 75, (S)-4-[(R)-6-(4-Chloro-2-fluoro-phenyl)-5-methoxycarbonyl-2-thiazol-2-yl-3,6-dihydro-pyrimidin-4-ylmethyl]-morpholine-3-carboxylic acid] were, in that order, 5556, over 100000 nM, 0 mL/min/kg, over 632 µg/mL and 18 nM.
On to `CCOC(=O)C1=C(CN2CCO[C@H](C)[C@H]2C(=O)O)NC(c2nccs2)=N[C@H]1c1ccc(F)c(F)c1` [Example 112, (2R,3S)-4-[(S)-6-(3,4-Difluoro-phenyl)-5-ethoxycarbonyl-2-thiazol-2-yl-3,6-dihydro-pyrimidin-4-ylmethyl]-2-methyl-morpholine-3-carboxylic acid], for which the “Selectivity index (CC50/EC50)” value with HBV [1] was 14123. For the same compound, in data set [2], the half-maximal cytotoxic concentration (CC50) at 5 days worked out at 73000 nM. The “Human Hepatic Clearance” value in data set [3] is on record as 1.95 mL/min/kg. In the data set on HBV [5] (setting [6]), the concentration for a half-maximal effect (EC50) was 5.2 nM.
Consider `COC(=O)C1=C(CN2CC(F)(F)C[C@H]2C(=O)O)NC(c2nc(C(C)C)cs2)=N[C@H]1c1ccc(F)cc1Cl` [Example 28, (R)-6-((S)-2-Carboxy-4,4-difluoro-pyrrolidin-1-ylmethyl)-4-(2-chloro-4-fluoro-phenyl)-2-(4-isopropyl-thiazol-2-yl)-1,4-dihydro-pyrimidine-5-carboxylic acid methyl ester], for which the “Selectivity index (CC50/EC50)” value with HBV [1] came to 7045. In addition, the cytotoxic concentration (CC50) at 5 days in data set [2] was 31000 nM. Further, the solubility (thermodynamic) in data set [4] was 247 µg/mL (≈ 443 µM). The EC50 in the data set with HBV [5] (setting [6]) was 4.4 nM.
Taken in the same sequence, the figures for `COC(=O)C1=C(CN2CCOC[C@H]2C(=O)O)NC(c2nc(SC)cs2)=N[C@H]1c1ccc(F)cc1Cl` [Example 61, (3S)-4-[[(4R)-4-(2-Chloro-4-fluorophenyl)-5-methoxycarbonyl-2-(4-methylsulfanyl-1,3-thiazol-2-yl)-1,4-dihydropyrimidin-6-yl]methyl]morpholine-3-carboxylic acid] were 3133, 56000 nM, 495 µg/mL (≈ 915 µM) and 18 nM.
On to `COC(=O)C1=C(CN2CCO[C@H](C)[C@H]2C(=O)O)NC(c2nccs2)=N[C@H]1c1ccccc1Br` [Example 119, (2R,3S)-4-[(R)-6-(2-Bromo-phenyl)-5-methoxycarbonyl-2-thiazol-2-yl-3,6-dihydro-pyrimidin-4-ylmethyl]-2-methyl-morpholine-3-carboxylic acid], for which the “Selectivity index (CC50/EC50)” value with HBV [1] is reported as over 33333. Further, the CC50 at 5 days in data set [2] is over 100000 nM. The “Human Hepatic Clearance” value in data set [3] is 0.85 mL/min/kg. Moreover, the concentration for a half-maximal effect (EC50) in the data set on HBV [5] (setting [6]) is 3 nM.
For `CCOC(=O)C1=C(CN2CCOC[C@H]2C(=O)O)NC(c2nccs2)=N[C@H]1c1ccc(Cl)cc1Cl` [Example 39, (S)-4-[(R)-6-(2,4-Dichloro-phenyl)-5-ethoxycarbonyl-2-thiazol-2-yl-3,6-dihydro-pyrimidin-4-ylmethyl]-morpholine-3-carboxylic acid], the “Human Hepatic Clearance” value in data set [3] is 7.18 mL/min/kg. Besides, the thermodynamic solubility in data set [4] is over 654 µg/mL. Further, in the data set on HBV [5] (HepG2.2.15), the midpoint of the response, the EC50, lay at 1.1 nM.
Take `COC(=O)C1=C(CN2CC(F)(F)CC[C@@H]2C(=O)O)NC(c2nccs2)=N[C@H]1c1cccc(F)c1Cl` [Example 110, (R)-6-((R)-2-Carboxy-5,5-difluoro-piperidin-1-ylmethyl)-4-(2-chloro-3-fluoro-phenyl)-2-thiazol-2-yl-1,4-dihydro-pyrimidine-5-carboxylic acid methyl ester]: in data set [3], the “Human Hepatic Clearance” value worked out at 2.41 mL/min/kg. For the same compound, in data set [4], the solubility (thermodynamic) was over 661 µg/mL. Further, the EC50 in the data set with HBV [5] (setting [6]) amounted to 42 nM.
On to `COC(=O)C1=C(CN2CCOC[C@H]2C(=O)O)NC(c2nccs2)=N[C@H]1c1ccc(Br)c(F)c1F` [Example 45, (5)-4-[(R)-6-(4-Bromo-2,3-difluoro-phenyl)-5-methoxycarbonyl-2-thiazol-2-yl-3,6-dihydro-pyrimidin-4-ylmethyl]-morpholine-3-carboxylic acid], for which the “Human Hepatic Clearance” value in data set [3] amounted to 4.69 mL/min/kg. In data set [4], the solubility (thermodynamic) was over 695 µg/mL. Further, the concentration giving a half-maximal response (EC50) in the data set with HBV [5] (setting [6]) is 28 nM.
`CCOC(=O)C1=C(CN2CCOC[C@H]2C(=O)O)NC(c2nccs2)=N[C@H]1c1ccccc1I` [Example 129, (3S)-4-[[(4R)-5-Ethoxycarbonyl-4-(2-iodophenyl)-2-(1,3-thiazol-2-yl)-1,4-dihydropyrimidin-6-yl]methyl]morpholine-3 carboxylic acid]: the “Selectivity index (CC50/EC50)” value in the data set with HBV [1] is over 13158. For the same compound, the cytotoxic concentration (CC50) at 5 days in data set [2] was over 100000 nM. The “Human Hepatic Clearance” value in data set [3] came to 4.25 mL/min/kg. The EC50 in the data set with HBV [5] (setting [6]) came out at 7.6 nM.
As to `COC(=O)C1=C(CN2CCOC[C@H]2C(=O)O)NC(c2nc(C)cn2C)=NC1c1ccc(F)cc1Cl` (stereo in doubt) [Example 92, (S)-4-[(S)-6-(2-Chloro-4-fluoro-phenyl)-2-(1,4-dimethyl-1H-imidazol-2-yl)-5-methoxycarbonyl-3,6-dihydro-pyrimidin-4-ylmethyl]-morpholine-3-carboxylic acid], the “Human Hepatic Clearance” value in data set [3] stood at 1.26 mL/min/kg. The thermodynamic solubility in data set [4] is over 602 µg/mL. Besides, the 50% effective concentration (EC50) in the data set on HBV [5] (setting [6]) was 14 nM.
Taken in the same sequence, the figures for `CCOC(=O)C1=C(CN2CC(F)(F)C[C@H]2C(=O)O)NC(c2nccs2)=N[C@H]1c1ccc(C#N)cc1` [Example 48, (S)-6-((S)-2-Carboxy-4,4-difluoro-pyrrolidin-1-ylmethyl)-4-(4-cyano-phenyl)-2-thiazol-2-yl-1,4-dihydro-pyrimidine-5-carboxylic acid ethyl ester] were 3.12 mL/min/kg, over 635 µg/mL and 28 nM.
As for `COC(=O)C1=C(CN2CC(F)(F)C[C@H]2C(=O)O)NC(c2ncccc2C)=N[C@H]1c1ccc(F)cc1Cl` [Example 24, (R)-6-((S)-2-Carboxy-4,4-difluoro-pyrrolidin-1-ylmethyl)-4-(2-chloro-4-fluoro-phenyl)-2-(3-methyl-pyridin-2-yl)-1,4-dihydro-pyrimidine-5-carboxylic acid methyl ester], the “Human Hepatic Clearance” value in data set [3] is reported as 3.19 mL/min/kg. Besides, the solubility (thermodynamic) in data set [4] was 656 µg/mL (≈ 1250 µM). The concentration for a half-maximal effect (EC50) in the data set on HBV [5] (setting [6]) was determined as 26 nM.
